16 compounds from patent US6794396B2, “Substituted pyridines useful for inhibiting cholesteryl ester transfer protein activity” (Pharmacia Corporation, priority 1998, dated 2004) can be followed below.

The target in the first assay is T1, CETP (Homo sapiens, UniProt P11597).
T1 construct: made in house; host or cells: CHO cells (serum-free conditioned medium)
T1 sequence (P11597 18-493): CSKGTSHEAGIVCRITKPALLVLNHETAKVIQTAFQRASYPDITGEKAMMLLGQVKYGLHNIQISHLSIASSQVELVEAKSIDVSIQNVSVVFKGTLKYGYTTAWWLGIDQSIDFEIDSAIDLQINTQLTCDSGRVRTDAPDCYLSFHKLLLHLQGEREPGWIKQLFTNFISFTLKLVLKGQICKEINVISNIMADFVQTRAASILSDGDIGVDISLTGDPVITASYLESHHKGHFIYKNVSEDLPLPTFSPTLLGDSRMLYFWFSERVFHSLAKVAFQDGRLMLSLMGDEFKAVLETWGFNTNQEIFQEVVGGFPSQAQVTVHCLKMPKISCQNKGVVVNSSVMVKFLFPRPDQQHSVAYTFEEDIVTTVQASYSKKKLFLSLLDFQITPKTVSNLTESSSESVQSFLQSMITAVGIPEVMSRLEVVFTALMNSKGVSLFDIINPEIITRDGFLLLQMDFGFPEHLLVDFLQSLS
Briefly: CETP activity in vitro: transfer of [3H]CE from HDL donor to LDL acceptor particles. Format: biochemical. The settings on record: 50% inhibition of [3H]CE transfer from HDL to LDL, 2 hours at 37° C.; read-out: IC50(μm). The procedure: The ability of compounds to inhibit CETP were assessed using an in vitro assay that measured the rate of transfer of radiolabeled cholesteryl ester ([^3H]CE) from HDL donor particles to LDL acceptor particles. Details of the assay are provided by Glenn et al. (“Quantification of Cholesteryl Ester Transfer Protein (CETP): A) CETP Activity and B) Immunochemical Assay of CETP Protein,” Meth. Enzymol., Glenn and Melton (Meth. Enzymol., 263, 339-351 (1996), which is incorporated herein by reference). CETP was obtained from the serum-free conditioned medium of CHO cells transfected with a cDNA for CETP (Wang, S. et al. J. Biol Chem. 267, 17487-17490 (1992), which is incorporated herein by reference).
To measure CETP activity, [^3H]CE-labeled HDL, LDL, CETP and assay buffer (50 mM tris(hydroxymethyl)amino-methane, pH 7.4; 150 mM sodium chloride; 2 mM ethylenediamine-tetraacetic acid; 1% bovine serum albumin) were incubated in a volume of 200 μl, for 2 hours at 37° C. in 96 well plates. LDL was differentially precipitated by the addition of 50 μl of 1% (w/v) dextran sulfate/0.5 M magnesium chloride, mixed by vortex, and incubated at room temperature for 10 minutes The solution (200μl) was transferred to a filter plate (Millipore). After filtration, the radioactivity present in the precipitated LDL was measured by liquid scintillation counting.
This value was defined as the IC50.
For `COC(=O)c1c(C(F)F)nc(C(F)(F)F)c(N=C(OC)SC)c1CC(C)C` [Compound 27, Methyl 2-(Difluoromethyl)-5-{[methoxy (methylthio)methylene]amino)-4-(2-methylpropyl)-6-(trifluoromethyl)-3-pyridinecarboxylate], the IC50 (in general, the concentration that inhibits the measured activity by half) was found to be 40 µM.

Consider `COC(=O)c1c(C(F)F)nc(C(F)(F)F)c(CI)c1CC(C)C` [Compound 32, Methyl 2-(Difluoromethyl)-5-(iodomethyl)-4-(2-methylpropyl)-6-(trifluoromethyl)-3-pyridinecarboxylate], for which the concentration for half-maximal inhibition (IC50) turned out to be 45 µM.

In the case of `COC(=O)c1c(C(F)F)nc(C(F)(F)F)c(C(OC)c2ccns2)c1CC(C)C` (stereo not shown) [Compound 34, Methyl 2-(Difluoromethyl)-5-[(methoxy)isothiazol-5-ylmethyl]-4-(2-methylpropyl)-6-(trifluoromethyl)-3-pyridinecarboxylate], the IC50 was found to be 45 µM.

Turning to `COC(=O)c1c(OCc2ccccc2)cc(C(F)(F)F)nc1C(F)(F)F` [Compound 37, Methyl 2,6-bis(Trifluoromethyl)-4-(benzyloxy)-3-pyridinecarboxylate], the IC50 worked out at 45 µM.

With `COC(=O)c1c(C(F)F)nc(C(F)(F)F)c(COC(=O)c2ccccc2)c1CC1CC1` [Compound 41, Methyl 5-(Benzoyloxymethyl)-2-(difluoromethyl)4-(cyclopropylmethyl)-6-(trifluoromethyl)-3-pyridinecarboxylate], the half-maximal inhibitory concentration (IC50) amounted to 50 µM.

For the compound `COC(=O)c1cc(CSC(=S)N(C)C)c(C(F)(F)F)nc1C(F)F` [Compound 43, Methyl 2-(Difluoromethyl)-5-[(dimethylaminothionothio)methyl]-6-(trifluoromethyl)-3-pyridinecarboxylate], the IC50 came out at 50 µM.

Consider `CCOC(=O)c1c(C(F)(F)F)nc(C(F)F)c(NC(=O)Nc2c(C(F)F)nc(C(F)(F)F)c(C(=O)OCC)c2CC)c1CC` [Compound 48], for which the IC50 came out at 50 µM.

Regarding `CCOC(=O)c1c(C(F)(F)F)nc(C(F)(F)F)c(C(=O)OC)c1OCC` [Compound 52], the 50% inhibitory concentration (IC50) worked out at 50 µM.

Staying with this assay, now noted: IC50(μm), 50% inhibition of [3H]CE transfer from HDL to LDL, 2 hours at 37° C.
In the case of `COC(=O)c1c(C(F)F)nc(C(F)(F)F)c(N=COCC2CO2)c1CC(C)C` (stereo not shown) [Compound 30], half-maximal inhibition (IC50) was put at 40 µM.

For `COC(=O)c1c(C(F)F)nc(C(F)(F)F)c(SCSC)c1CC(C)C` [Compound 33, Methyl 2-(Difluoromethyl)-4-(2-methylpropyl)-5-(methylthiomethylthio)-6-(trifluoromethyl)-3-pyridinecarboxylate], the midpoint of inhibition, the IC50, lay at 45 µM.

Take `COC=C(Br)c1c(C(F)(F)F)nc(C(F)F)c(C(=O)OC)c1CC1CC1` [Compound 35, Methyl 5-(1-Bromo-2-methoxyethenyl)-4-(cyclopropylmethyl)-2-(difluoromethyl)-6-(trifluoromethyl)-3-pyridinecarboxylate]: the 50% inhibitory concentration (IC50) turned out to be 45 µM.

As for `CCOC(=O)c1c(C(F)(F)F)nc(C(F)(F)F)c(C(=O)OCC)c1CC(C)C` [Compound 36, Diethyl 2,6-Bis(trifluoromethyl)-4-(2-methylpropyl)-3,5-pyridinedicarboxylate], the half-inhibitory concentration (IC50) was 45 µM.

`CCOC(=O)c1c(C(F)F)nc(C(F)(F)F)c(C(=O)OCC)c1C1CCCCC1` [Compound 38] gave a half-maximal inhibitory concentration (IC50) of 50 µM.

`CCOC(=O)c1c(C(F)F)nc(C(F)(F)F)c(C(=O)OCC)c1SC(C)(C)C` [Compound 39, Diethyl 2-(Difluoromethyl)-4-(t-butylthio)-6-(trifluoromethyl)-3,5-pyridine-dicarboxylate] displayed an IC50 of 50 µM.

Turning to `COC(=O)c1c(C(F)F)nc(C(F)(F)F)c(N=C(SC)SC)c1CC(C)C` [Compound 42, Methyl 5-{[Bis(methylthio)methylene]amino}-2-(difluoromethyl)-4-(2-methylpropyl)-6-(trifluoromethyl)-3-pyridinecarboxylate], the IC50 was 50 µM.

As to `COC(=O)c1c(C(F)F)nc(C(F)(F)F)c(C(=O)OC)c1CCC(C)C` [Compound 49], the concentration for half-maximal inhibition (IC50) worked out at 50 µM.
